Patent publication US20230103631A1, “PEPTIDES AS SELECTIVE GIP RECEPTOR AGONISTS” (Sanofi, priority 2020, published 2023)
*1 amine or outer side, *2 acyl side, *3 side chain or, on linkers, in order; H or OH if unused. Where a SMILES comes first, the peptide text is derived from it. Where no end group is shown, it is not given here. Side-chain parts run from the residue outwards. [ ]: non-standard residue; d: D form. The star is where a group is joined. C18 diacid = O=C(O)CCCCCCCCCCCCCCCCC(=O)*; γGlu = O=C(O)[C@H](CCC(=O)[*:2])N[*:1]; NMeY = CN[C@@H](Cc1ccc(O)cc1)C(=O)O; AEEA = NCCOCCOCC(=O)O; Aib = CC(C)(N)C(=O)O; Sar = CNCC(=O)O

T1: human GIP receptor (human, UniProt P48546 22-466)
T1 sequence (looked up): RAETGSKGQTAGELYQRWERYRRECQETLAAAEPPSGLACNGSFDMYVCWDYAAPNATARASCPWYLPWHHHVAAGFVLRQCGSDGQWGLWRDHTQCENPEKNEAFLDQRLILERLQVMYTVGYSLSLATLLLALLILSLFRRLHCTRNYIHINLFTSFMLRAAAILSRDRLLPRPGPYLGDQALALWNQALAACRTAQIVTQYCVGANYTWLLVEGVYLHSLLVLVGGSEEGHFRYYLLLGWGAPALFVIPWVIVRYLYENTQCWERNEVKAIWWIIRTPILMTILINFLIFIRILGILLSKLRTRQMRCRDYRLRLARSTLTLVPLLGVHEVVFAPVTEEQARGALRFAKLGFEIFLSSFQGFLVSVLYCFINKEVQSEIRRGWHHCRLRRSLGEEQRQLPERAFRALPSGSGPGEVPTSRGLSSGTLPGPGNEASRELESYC


What was measured:
[1] = biological target: human GLP-1 receptor (hGLP-1R) (Homo sapiens, UniProt P43220); experiment: cAMP HTRF assay, HEK-293 cell line over-expressing human GLP-1 receptor; type: cell-based; details: HEK-293, cAMP, 0% HSA
Experimental: Each vial contained 1.8 ml cells. The vials were slowly frozen to −80° C. in isopropanol, and then transferred in liquid nitrogen for storage.
Prior to their use, frozen cells were thawed quickly at 37° C. and washed (5 min at 900 rpm) with 20 ml cell buffer (1× HBSS; 20 mM HEPES, plus 0.1% HSA if indicated in Example conditions).
For measurement of cAMP generation, 5 μl cells (final 5000 cells/well) and 5 μl of test compound were added to a 384-well plate, followed by incubation for 30 min at room temperature.
The cAMP generated was determined using a kit from Cisbio Corp. based on HTRF (Homogenous Time Resolved Fluorescence). The cAMP assay was performed according to manufacturer's instructions (Cisbio).

[2] = physchem; type: physicochemical; details: for Soluble amount: 24 h, pH 7.4; for solubility at 24 h: pH 7.4, Soluble amount
Experimental: Prior to the solubility measurement of a peptide batch, its purity was determined through UHPLC/MS. […] Therefore, solutions from solid samples were prepared in a buffer system with a concentration of 10 mg/ml compound based on the previously determined % purity: Solubility buffer system A) 100 mM phosphate buffer pH 7.4 […] Solubility buffer system C) 100 mM phosphate buffer pH 7.4, 2.7 mg/ml m-cresol UHPLC-UV was performed after 1 h of gentle agitation and storage at 5° C. over night (24 h) from the supernatant, which was obtained after 15 min of centrifugation at 2500 RCF (relative centrifugal acceleration). […] The different UV extinction coefficients of sample and reference peptide were calculated based on the different amino acid sequences and considered in the concentration calculation. The analytical method used was Analytical UHPLC Method A. Peptide samples were prepared in solubility buffer system A or C and solubility was assessed as described in Methods.

[3] = biological target: human GLP-1 receptor (human, UniProt P43220 24-463); experiment: cell-based or functional assay
[4] = biological target: T1, human GIP receptor; experiment: cell-based or functional assay

Sequence of human GLP-1 receptor (hGLP-1R) (P43220 24-463): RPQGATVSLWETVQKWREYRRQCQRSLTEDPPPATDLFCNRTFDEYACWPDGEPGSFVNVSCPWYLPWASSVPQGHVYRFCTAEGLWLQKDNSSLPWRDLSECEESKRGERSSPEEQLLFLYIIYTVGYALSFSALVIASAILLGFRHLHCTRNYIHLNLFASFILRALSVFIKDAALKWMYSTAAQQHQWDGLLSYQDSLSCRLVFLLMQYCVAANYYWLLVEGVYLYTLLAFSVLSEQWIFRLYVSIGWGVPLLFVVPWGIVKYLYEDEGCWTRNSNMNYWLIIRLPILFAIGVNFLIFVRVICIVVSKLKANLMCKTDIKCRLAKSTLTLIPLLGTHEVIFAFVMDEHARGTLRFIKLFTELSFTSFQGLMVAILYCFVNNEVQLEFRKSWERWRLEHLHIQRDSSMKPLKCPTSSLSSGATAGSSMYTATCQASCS

| Molecule | EC50 [1] | Soluble amount [2] | solubility at 24 h [2] | EC50 hGLP-1R 0% HSA, cAMP in HEK-293 cells [3] | EC50 hGIPR 0% HSA, cAMP in HEK-293 cells [4] | EC50 hGIPR 0.1% HSA, cAMP in HEK-293 cells [4] |
| --- | --- | --- | --- | --- | --- | --- |
| CC[C@H](C)[C@H](NC(=O)[C@H](Cc1ccccc1)NC(=O)[C@H](CCC(=O)O)NC(=O)[C@H](CCC(=O)O)NC(=O)[C@H](CCC(N)=O)NC(=O)[C@H](Cc1c[nH]cn1)NC(=O)[C@@H](NC(=O)[C@H](CCCNC(=N)N)NC(=O)[C@H](CC(=O)O)NC(=O)[C@H](CCCCNC(=O)COCCOCCNC(=O)COCCOCCNC(=O)COCCOCCNC(=O)CC[C@H](NC(=O)CCCCCCCCCCCCCCCCC(=O)O)C(=O)O)NC(=O)C(C)(C)NC(=O)[C@@H](NC(=O)[C@H](CO)NC(=O)[C@H](CC(C)C)NC(=O)[C@H](CC(=O)O)NC(=O)[C@H](CO)NC(=O)[C@@H](NC(=O)[C@H](Cc1ccccc1)NC(=O)[C@@H](NC(=O)CNC(=O)[C@H](CCC(=O)O)NC(=O)C(C)(C)NC(=O)[C@@H](N)Cc1ccc(O)cc1)[C@@H](C)O)[C@@H](C)CC)[C@@H](C)CC)[C@@H](C)CC)C(=O)N[C@@H](CCC(=O)O)C(=O)N[C@@H](Cc1c[nH]c2ccccc12)C(=O)N[C@@H](CC(C)C)C(=O)N[C@@H](CC(C)C)C(=O)N[C@@H](C)C(=O)N[C@@H](CCC(N)=O)C(=O)NCC(=O)N1CCC[C@H]1C(=O)N[C@@H](CO)C(=O)N[C@@H](CO)C(=O)NCC(=O)N[C@@H](C)C(=O)N1CCC[C@H]1C(=O)N1CCC[C@H]1C(=O)N1CCC[C@H]1C(=O)N[C@@H](CO)C(N)=O [SEQ ID NO: 12, H2N-Y-Aib-E-G-T-F-I-S-D-I-S-I-Aib-K[{AEEA}3-gGlu-C18OH]-DRIHQEEFIEWILAQGPSSGAPPPS-NH2] (H-Y[Aib]EGTFISDLSI[Aib]K([AEEA-AEEA-AEEA-γGlu-C18 diacid])DRIHQEEFIEWLLAQGPSSGAPPPS-NH2) | > 10 nM | >9.1 mg/mL | > 8800 µg/mL | – | – | – |
| CC[C@H](C)[C@H](NC(=O)[C@H](Cc1ccccc1)NC(=O)[C@H](CCC(=O)O)NC(=O)[C@H](CCC(=O)O)NC(=O)[C@H](CCC(N)=O)NC(=O)[C@H](Cc1c[nH]cn1)NC(=O)[C@@H](NC(=O)[C@H](CCCNC(=N)N)NC(=O)[C@H](CC(=O)O)NC(=O)[C@H](CCCCNC(=O)COCCOCCNC(=O)COCCOCCNC(=O)CC[C@H](NC(=O)CCCCCCCCCCCCCCCCC(=O)O)C(=O)O)NC(=O)C(C)(C)NC(=O)[C@@H](NC(=O)[C@H](CO)NC(=O)[C@H](CC(C)C)NC(=O)[C@H](CC(=O)O)NC(=O)[C@H](CO)NC(=O)[C@@H](NC(=O)[C@H](Cc1ccccc1)NC(=O)[C@@H](NC(=O)CNC(=O)[C@H](CCC(=O)O)NC(=O)C(C)(C)NC(=O)[C@H](Cc1ccc(O)cc1)NC)[C@@H](C)O)[C@@H](C)CC)[C@@H](C)CC)[C@@H](C)CC)C(=O)N[C@@H](CCC(=O)O)C(=O)N[C@@H](Cc1c[nH]c2ccccc12)C(=O)N[C@@H](CC(C)C)C(=O)N[C@@H](CC(C)C)C(=O)N[C@@H](C)C(=O)N[C@@H](CCC(N)=O)C(=O)NCC(=O)N1CCC[C@H]1C(=O)N[C@@H](CO)C(=O)N[C@@H](CO)C(=O)NCC(=O)N[C@@H](C)C(=O)N1CCC[C@H]1C(=O)N1CCC[C@H]1C(=O)N1CCC[C@H]1C(=O)N[C@@H](CO)C(N)=O [SEQ ID NO: 13, MeHN-Y-Aib-E-G-T-F-I-S-D-I-S-I-Aib-K[{AEEA}2-gGlu-C18OH]-DRIHQEEFIEWILAQGPSSGAPPPS-NH2] (H-[NMeY][Aib]EGTFISDLSI[Aib]K([AEEA-AEEA-γGlu-C18 diacid])DRIHQEEFIEWLLAQGPSSGAPPPS-NH2) | > 10 nM | >11.0 mg/mL | > 10200 µg/mL | – | – | – |
| CC[C@H](C)[C@H](NC(=O)[C@H](Cc1ccccc1)NC(=O)[C@H](CCC(=O)O)NC(=O)[C@H](CCC(=O)O)NC(=O)[C@H](CCC(N)=O)NC(=O)[C@H](Cc1c[nH]cn1)NC(=O)[C@@H](NC(=O)[C@H](CCCNC(=N)N)NC(=O)[C@H](CC(=O)O)NC(=O)[C@H](CCCCNC(=O)COCCOCCNC(=O)COCCOCCNC(=O)CC[C@H](NC(=O)CC[C@H](NC(=O)CCCCCCCCCCCCCCCCC(=O)O)C(=O)O)C(=O)O)NC(=O)C(C)(C)NC(=O)[C@@H](NC(=O)[C@H](CO)NC(=O)[C@H](CC(C)C)NC(=O)[C@H](CC(=O)O)NC(=O)[C@H](CO)NC(=O)[C@@H](NC(=O)[C@H](Cc1ccccc1)NC(=O)[C@@H](NC(=O)CNC(=O)[C@H](CCC(=O)O)NC(=O)C(C)(C)NC(=O)[C@@H](N)Cc1ccc(O)cc1)[C@@H](C)O)[C@@H](C)CC)[C@@H](C)CC)[C@@H](C)CC)C(=O)N[C@@H](CCC(=O)O)C(=O)N[C@@H](Cc1c[nH]c2ccccc12)C(=O)N[C@@H](CC(C)C)C(=O)N[C@@H](CC(C)C)C(=O)N[C@@H](C)C(=O)N[C@@H](CCC(N)=O)C(=O)NCC(=O)N1CCC[C@H]1C(=O)N[C@@H](CO)C(=O)N[C@@H](CO)C(=O)NCC(=O)N[C@@H](C)C(=O)N1CCC[C@H]1C(=O)N1CCC[C@H]1C(=O)N1CCC[C@H]1C(=O)N[C@@H](CO)C(N)=O [SEQ ID NO: 14, H2N-Y-Aib-E-G-T-F-I-S-D-I-S-I-Aib-K[{AEEA}2-{gGlu}2-C18OH]-DRIHQEEFIEWILAQGPSSGAPPPS-NH2] (H-Y[Aib]EGTFISDLSI[Aib]K([AEEA-AEEA-γGlu-γGlu-C18 diacid])DRIHQEEFIEWLLAQGPSSGAPPPS-NH2) | > 10 nM | >9.7 mg/mL | > 9300 µg/mL | – | – | – |
| Y[Aib]EGTFISDLSI[Aib]K([Sar-Sar-Sar-γGlu-C18 diacid])DRIHQEEFIEWLLAQGPSSGAPPPS-NH2 (N-terminus assumed; SMILES CC[C@H](C)[C@H](NC(=O)[C@H](Cc1ccccc1)NC(=O)[C@H](CCC(=O)O)NC(=O)[C@H](CCC(=O)O)NC(=O)[C@H](CCC(N)=O)NC(=O)[C@H](Cc1c[nH]cn1)NC(=O)[C@@H](NC(=O)[C@H](CCCNC(=N)N)NC(=O)[C@H](CC(=O)O)NC(=O)[C@H](CCCCNC(=O)CN(C)C(=O)CN(C)C(=O)CN(C)C(=O)CC[C@H](NC(=O)CCCCCCCCCCCCCCCCC(=O)O)C(=O)O)NC(=O)C(C)(C)NC(=O)[C@@H](NC(=O)[C@H](CO)NC(=O)[C@H](CC(C)C)NC(=O)[C@H](CC(=O)O)NC(=O)[C@H](CO)NC(=O)[C@@H](NC(=O)[C@H](Cc1ccccc1)NC(=O)[C@@H](NC(=O)CNC(=O)[C@H](CCC(=O)O)NC(=O)C(C)(C)NC(=O)[C@@H](N)Cc1ccc(O)cc1)[C@@H](C)O)[C@@H](C)CC)[C@@H](C)CC)[C@@H](C)CC)C(=O)N[C@@H](CCC(=O)O)C(=O)N[C@@H](Cc1c[nH]c2ccccc12)C(=O)N[C@@H](CC(C)C)C(=O)N[C@@H](CC(C)C)C(=O)N[C@@H](C)C(=O)N[C@@H](CCC(N)=O)C(=O)NCC(=O)N1CCC[C@H]1C(=O)N[C@@H](CO)C(=O)N[C@@H](CO)C(=O)NCC(=O)N[C@@H](C)C(=O)N1CCC[C@H]1C(=O)N1CCC[C@H]1C(=O)N1CCC[C@H]1C(=O)N[C@@H](CO)C(N)=O) [SEQ ID NO: 17] | – | – | – | > 10 nM | 0.29 pM | 3.39 pM |
